# Assay results as given in patent US20060264419A1 (priority 2003, published 2006).
# Target: 5-HT2A receptors (Rattus norvegicus, UniProt P14842)
# Experiment: in-vitro affinity to 5-HT2A receptors, displacement of [3H]ketanserine (Example A1)
# Assay type: binding
# Conditions: read-out: HT2A IC50
# From the text: The 5-HT2A receptors are exposed both to [^3H]ketanserine (a substance which is known for its affinity to the receptor) and also to the test compound. The decrease in the affinity of [^3H]ketanserine to the receptor is an indication of the affinity of the test substance to the 5-HT2A receptor.
# Sequence of 5-HT2A receptors (P14842 whole entry): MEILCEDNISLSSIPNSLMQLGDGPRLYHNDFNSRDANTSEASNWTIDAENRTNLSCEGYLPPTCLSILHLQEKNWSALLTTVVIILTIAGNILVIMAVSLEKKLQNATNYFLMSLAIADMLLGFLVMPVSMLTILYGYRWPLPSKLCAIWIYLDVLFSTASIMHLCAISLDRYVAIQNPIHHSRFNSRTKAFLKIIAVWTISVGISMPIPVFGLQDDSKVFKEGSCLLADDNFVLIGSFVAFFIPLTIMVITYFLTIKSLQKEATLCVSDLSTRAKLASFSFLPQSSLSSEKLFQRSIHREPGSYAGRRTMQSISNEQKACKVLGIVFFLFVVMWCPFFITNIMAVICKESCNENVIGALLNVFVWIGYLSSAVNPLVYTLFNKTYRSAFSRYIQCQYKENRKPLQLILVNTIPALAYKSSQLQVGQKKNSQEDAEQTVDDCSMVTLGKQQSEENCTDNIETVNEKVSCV
row,Structure (SMILES),IC50
1,"CC1CN(Cc2cnn(-c3ccc(-c4ccccc4)cc3)c2-c2ccccc2F)CC(C)N1 (stereo not shown) [Example 979, 1-[1-Biphenyl-4-yl-5-(2-fluorophenyl)-1H-pyrazol-4-ylmethyl]-3,5-dimethylpiperazine]",100 nM
2,"COc1ccc(-c2c(CN3CCN(CCN4CCCC4)CC3)cnn2-c2ccc(-c3ccc(F)cc3)cc2)cc1 [Example 954, 1-[1-(4′-Fluorobiphenyl-4-yl)-5-(4-methoxy-phenyl)-1H-pyrazol-4-ylmethyl]-4-(2-pyrroli-din-1-ylethyl)piperazine]",56 nM
3,"CN(C)Cc1ccccc1-c1ccc(-n2ncc(CN3CCN(C)CC3)c2-c2ccccc2F)cc1 [Example 970, {4′-[5-(2-Fluorophenyl)-4-(4-methyl-piperazin-1-ylmethyl)pyrazol-1-yl]biphenyl-2-ylmethyl}-dimethylamine]",81 nM
4,Cc1nn(-c2ccccc2)c(C)c1CN1CCN(C(=O)CC(C)C(=O)O)CC1 (stereo not shown) [Example 978],100 nM
5,"CN1CCN(Cc2cnn(-c3ccc(-c4cccc(Cl)c4)cc3)c2-c2ccccc2F)CC1 [Example 963, 1-[1-(3′-Chlorobiphenyl-4-yl)-5-(2-fluoro-phenyl)-1H-pyrazol-4-ylmethyl]-4-methyl-piperazine]",69 nM
6,"Cc1ccc(-c2ccc(-n3ncc(CN4CCN(C)CC4)c3-c3ccccc3F)cc2)c(F)c1F [Example 959, 1-[1-(2′,3′-Difluoro-4′-methylbiphenyl-4-yl)-5-(2-fluorophenyl)-1H-pyrazol-4-ylmethyl]-4-methylpiperazine]",60 nM
7,"OCCN1CCN(Cc2cnn(-c3ccc(-c4ccccc4)cc3)c2-c2ccccc2F)CC1 [Example 1032, 2-{4-[1-Biphenyl-4-yl-5-(2-fluoro-phenyl)-1H-pyrazol-4-ylmethyl]piperazin-1-yl}ethanol]",280 nM
8,"CN(C)C1CCN(Cc2cnn(-c3ccc(-c4ccccc4)cc3)c2-c2ccccc2F)CC1 [Example 1008, {1-[1-Biphenyl-4-yl-5-(2-fluorophenyl)-1H-pyrazol-4-ylmethyl]piperidin-4-yl}dimethyl-amine]",200 nM
9,"Cc1ccccc1-c1c(CN2CCN(C)CC2)cnn1-c1ccc(-c2ccc(F)cc2)cc1 [Example 966, 1-[1-(4′-Fluorobiphenyl-4-yl)-5-o-tolyl-1H-pyrazol-4-ylmethyl]-4-methyl-piperazine]",72 nM
10,"CN1CCN(Cc2cnn(-c3ccc(Br)cc3)c2-c2ccccc2F)CC1 [Example 989, 1-[1-(4-Bromophenyl)-5-(2-fluoro-phenyl)-1H-pyrazol-4-ylmethyl]-4-methylpiperazine]",130 nM

# The next lines start with the values.
row,IC50,Structure (SMILES)
1,36 nM,"Fc1ccccc1-c1c(CN2CC=CC2)cnn1-c1ccc(-c2ccccc2)cc1 [Example 939, 1-Biphenyl-4-yl-4-(2,5-dihydropyrrol-1-yl-methyl)-5-(2-fluorophenyl)-1H-pyrazole]"
2,230 nM,"CCNC(=O)CN1CCN(Cc2cnn(-c3ccc(-c4ccccc4)cc3)c2-c2ccccc2F)CC1 [Example 1018, 2-{4-[1-Biphenyl-4-yl-5-(2-fluoro-phenyl)-1H-pyrazol-4-ylmethyl]piperazin-1-yl}-N-ethyl-acetamide]"
3,130 nM,"N#CC(NCc1cnn(-c2ccc(-c3ccccc3)cc2)c1-c1ccccc1F)C(N)=O (stereo not shown) [Example 987, 2-{[1-Biphenyl-4-yl-5-(2-fluorophenyl)-1H-pyrazol-4-ylmethyl]amino}-2-cyanoacetamide]"
4,170 nM,"Fc1ccccc1-c1c(CNCCc2c[nH]cn2)cnn1-c1ccc(-c2ccccc2)cc1 [Example 1002, [1-Biphenyl-4-yl-5-(2-fluorophenyl)-1H-pyrazol-4-ylmethyl]-[2-(1H-imidazol-4-yl)-ethyl]amine]"
5,280 nM,"N#CCNCc1cnn(-c2ccc(-c3ccccc3)cc2)c1-c1ccccc1F [Example 1034, {[1-Biphenyl-4-yl-5-(2-fluorophenyl)-1H-pyrazol-4-ylmethyl]amino}acetonitrile]"
6,200 nM,"c1ccc(-c2ccc(-n3ncc(CN4CCNCC4)c3-c3ccccn3)cc2)cc1 [Example 1009, 1-(1-Biphenyl-4-yl-5-pyridin-2-yl-1H-pyrazol-4-ylmethyl)piperazine]"

# Same assay, conditions: target not given; description names affinity to 5-HT2A receptors; read-out: IC50
row,Structure (SMILES),IC50
1,"CN1CCC(N(C)Cc2cnn(-c3ccc(-c4ccccc4)cc3)c2-c2ccccc2F)C1 (stereo not shown) [(168), [1-Biphenyl-4-yl-5-(2-fluorophenyl)-1H-pyrazol-4-ylmethyl]-methyl-(1-methylpyrrolidin-3-yl)amine]",16 nM
2,"Cn1cccc1CNCc1cnn(-c2ccc(-c3ccccc3)cc2)c1-c1ccccc1 [(171), (1-Biphenyl-4-yl-5-phenyl-1H-pyrazol-4-ylmethyl)-(1-methyl-1H-pyrrol-2-ylmethyl)amine]",26 nM
3,"Cn1ccnc1CNCc1cnn(-c2ccc(-c3ccccc3)cc2)c1-c1ccccc1 [(169), (1-Biphenyl-4-yl-5-phenyl-1H-pyrazol-4-ylmethyl)-(1-methyl-1H-imidazol-2-ylmethyl)amine]",39 nM
4,"CCOC(=O)CNC(=O)CNCc1cnn(-c2ccc(-c3ccccc3)cc2)c1-c1ccccc1F [(153), Ethyl (2-{[1-Biphenyl-4-yl-5-(2-fluorophenyl)-1H-pyrazol-4-ylmethyl]amino}ethanoylamino)acetate]",1100 nM
5,"CN1CC2CC1CN2Cc1cnn(-c2ccc(-c3ccccc3)cc2)c1-c1ccccc1F (stereo not shown) [(109), 2-[1-Biphenyl-4-yl-5-(2-fluorophenyl)-1H-pyrazol-4-ylmethyl]-5-methyl-2,5-diazabicyclo[2.2.1]heptane]",94 nM
6,"CN1CCN(Cc2cnn(-c3ccc(-c4ccc(F)cc4)cc3)c2-c2ccccc2)CC1 [(97), 1-[1-(4′-Fluorobiphenyl-4-yl)-5-phenyl-1H-pyrazol-4-ylmethyl]-4-methylpiperazine]",13 nM
7,"OCCN1CCN(Cc2cnn(-c3ccc(-c4ccccc4)cc3)c2-c2ccccc2F)CC1 [(79), 2-{4-[1-Biphenyl-4-yl-5-(2-fluorophenyl)-1H-pyrazol-4-ylmethyl]piperazin-1-yl}ethanol]",280 nM
8,"CN1CCN(Cc2cnn(-c3ccc(-c4ccccc4)cc3)c2-c2ccccn2)CC1 [(58), 1-(1-Biphenyl-4-yl-5-pyridin-2-yl-1H-pyrazol-4-ylmethyl)-4-methylpiperazine]",50 nM
9,"CN1CCC(N(C)Cc2cnn(-c3ccc(-c4ccccc4)cc3)c2-c2ccccc2F)CC1 [(39), [1-Biphenyl-4-yl-5-(2-fluorophenyl)-1H-pyrazol-4-ylmethyl]-methyl-(1-methylpiperidin-4-yl)amine]",160 nM
10,"COC(=O)CCNCc1cnn(-c2ccc(-c3ccccc3)cc2)c1-c1cccnc1 [(183), Methyl 3-[(1-biphenyl-4-yl-5-pyridin-3-yl-1H-pyrazol-4-ylmethyl)amino]propionate]",830 nM
11,"Fc1ccc(F)c(-c2ccc(-n3ncc(CNc4cc[nH]n4)c3-c3ccccc3F)cc2)c1 [(140), [1-(2′,5′-Difluorobiphenyl-4-yl)-5-(2-fluorophenyl)-1H-pyrazol-4-ylmethyl]-(1H-pyrazol-3-yl)amine]",180 nM
12,"NC(=O)C1CCCN1Cc1cnn(-c2ccc(-c3ccccc3)cc2)c1-c1ccccc1F (stereo not shown) [(155), 1-[1-Biphenyl-4-yl-5-(2-fluorophenyl)-1H-pyrazol-4-ylmethyl]-pyrrolidine-2-carboxamide]",1700 nM
13,"N#CC(NCc1cnn(-c2ccc(-c3ccccc3)cc2)c1-c1ccccc1F)C(N)=O (stereo not shown) [(136), 2-{[1-Biphenyl-4-yl-5-(2-fluorophenyl)-1H-pyrazol-4-ylmethyl]-amino}-2-cyanoacetamide]",130 nM
14,"CN1CCN(Cc2cnn(-c3ccc(-c4cc(F)ccc4F)cc3)c2-c2ccc(F)cc2)CC1 [(101), 1-[1-(2′,5′-Difluorobiphenyl-4-yl)-5-(4-fluorophenyl)-1H-pyrazol-4-ylmethyl]-4-methylpiperazine]",240 nM
15,"CCOC(=O)N1CCC(NCc2cnn(-c3ccc(-c4ccccc4)cc3)c2-c2ccccc2F)CC1 [(72), Ethyl 4-{[1-biphenyl-4-yl-5-(2-fluorophenyl)-1H-pyrazol-4-ylmethyl]amino}piperidine-1-carboxylate]",580 nM
16,"CN1CCN(Cc2cnn(-c3ccc(-c4cc(F)ccc4F)cc3)c2-c2ccccc2F)CC1 [(65), 1-[1-(2′,5′-Difluorobiphenyl-4-yl)-5-(2-fluorophenyl)-1H-pyrazol-4-ylmethyl]-4-methylpiperazine]",55 nM
17,"Fc1ccccc1-c1c(CCN2CCOCC2)cnn1-c1ccc(-c2ccccc2)cc1 [(42), 4-{2-[1-Biphenyl-4-yl-5-(2-fluorophenyl)-1H-pyrazol-4-yl]ethyl}morpholine]",12 nM
18,"OC1CCN(Cc2cnn(-c3ccc(-c4ccccc4)cc3)c2-c2ccccc2F)C1 (stereo not shown) [(53), 1-[1-Biphenyl-4-yl-5-(2-fluorophenyl)-1H-pyrazol-4-ylmethyl]-pyrrolidin-3-ol]",14 nM
19,"Fc1ccccc1-c1c(C=CCN2CCOCC2)cnn1-c1ccc(-c2ccccc2)cc1 [(46), 4-{3-[1-Biphenyl-4-yl-5-(2-fluorophenyl)-1H-pyrazol-4-yl]allyl}morpholine]",17 nM
20,"Fc1ccccc1-c1c(CN2CC=CC2)cnn1-c1ccc(-c2ccccc2)cc1 [(30), 1-Biphenyl-4-yl-4-(2,5-dihydropyrrol-1-ylmethyl)-5-(2-fluorophenyl)-1H-pyrazole]",36 nM
21,"CN1CCN(Cc2cnn(-c3ccc(-c4cc(F)ccc4F)cc3)c2-c2ccco2)CC1 [(69), 1-[1-(2′,5′-Difluorobiphenyl-4-yl)-5-furan-2-yl-1H-pyrazol-4-ylmethyl]-4-methylpiperazine]",36 nM
22,"Fc1ccccc1-c1c(CN2CCCCCC2)cnn1-c1ccc(-c2ccccc2)cc1 [(31), 1-[1-Biphenyl-4-yl-5-(2-fluorophenyl)-1H-pyrazol-4-ylmethyl]-azepan]",48 nM
23,"Fc1ccccc1-c1c(CN2CCC2)cnn1-c1ccc(-c2ccccc2)cc1 [(160), 4-Azetidin-1-ylmethyl-1-biphenyl-4-yl-5-(2-fluorophenyl)-1H-pyrazole]",47 nM
24,"c1ccc(-c2ccc(-n3ncc(CNCc4ccncc4)c3-c3ccccc3)cc2)cc1 [(170), (1-Biphenyl-4-yl-5-phenyl-1H-pyrazol-4-ylmethyl)pyridin-4-ylmethylamine]",31 nM
